Source: PubChem BioAssay AID1845207 (Molecular Pharmacology Branch, DTP, NCI, 2023)
Values joined by “and” are separate entries in the source; they are usually repeats but may differ in a detail not shown here. Equal values may be shown once. Active and inactive are the calls of the source. Rule for the calls: active = viability on the fitted dose curve at most 10% of control; inactive = the rest.

System: NCI-H1876 tumor spheroid viability
Assay: Anticancer human tumor NCI-H1876 cell line growth inhibition;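 note: spheroids exposed to compounds for seven days before the viability read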;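 for viability, T/C: percent of DMSO vehicle control viability so 100% = vehicle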
Details: spheroids with HUVEC and MSC; for viability, T/C: stronger effect = lower value
Text: Multicellular complex tumor spheroid response to DNA repair inhibitors in combination with DNA-damaging drugs
This study explores the anticancer activities of DNA-damaging drugs and inhibitors of DNA damage repair, both as single agents and in combinations. Complex tumor spheroids comprised of malignant cells, endothelial cells and mesenchymal stem cells served as an in vitro model for human solid tumors. This model system incorporates physiologically relevant features and patient-derived or established malignant cell lines with clinically relevant genetic alterations from many tumor types. Twenty-six patient-derived or established malignant cell lines were evaluated representing sarcoma, melanoma, small cell lung cancer (SCLC), non-small cell lung cancer (NSCLC), as well as bladder, ovarian and pancreatic cancers. The concentration ranges selected for each drug and investigational agent were based upon clinically achievable concentrations if the clinical Cmax of the agent was known.
Compounds. The drugs and compounds olaparib (NSC753686), talazoparib (NSC767125), berzosertib (NSC777718), elimusertib (NSC800525), nedisertib (NSC802822), VX-984 (NSC792969), AZD-1390 (NSC803789), temozolomide (NSC362856), topotecan (NSC609699), trabectedin (NSC813783), staurosporine (NSC755774), and gemcitabine (NSC613327) were obtained from the National Cancer Institute (NCI) Developmental Therapeutics Program Chemical Repository. The FDA-approved anticancer drug set is available from the Developmental Therapeutics Program at https://dtp.cancer.gov/organization/dscb/obtaining/available_plates.htm. […] The stock solutions were prepared in dimethyl sulfoxide (DMSO, Sigma-Aldrich, St. Louis, MO, cat. D2650) at 400-fold the tested concentration and stored at -70 degrees C. Prior to their use, the stock solutions were diluted in fresh medium and the final DMSO concentration in the assay was 0.25% (v/v). All drugs and investigational agents were tested over a range starting from a high concentration at or near the clinical Cmax and decreasing in half-log increments. If the clinical Cmax for an agent had not been determined, the highest concentration tested was 10 microM.
Cell Lines. The patient-derived cancer cell (PDC) lines: 156681-154-R-J1-PDC, 283228-195-R-J1-PDC, 287954-098-R-J1-PDC, 292921-168-R-J2-PDC, 349418-098-R-PDC, 425362-245-T-J1-PDC, 556581-035-R-J1-PDC, and BL0293-F563-PDC were received from the NCI Patient-Derived Models Repository (PDMR, https://pdmr.cancer.gov). The established cell lines HS-SY-2 (RRID:CVCL_8719), MPNST, and SYO-1 (RRID:CVCL_7146) were obtained from the Sloan Kettering Institute. The alveolar soft parts sarcoma cell line ASPS-1 (RRID:CVCL_S738) was established at the NCI and grown from internal seed stocks. The following established cell lines were purchased from the American Type Culture Collection (ATCC, Manassas, VA): G-401 (ATCC, cat. CRL-1441, RRID:CVCL_0270), SW982 (ATCC, cat. HTB-93, RRID:CVCL_1734), VA-ES-BJ (ATCC, cat. CRL-2138, RRID:CVCL_1785), NCI-H719 (ATCC, cat. CRL-5837, RRID:CVCL_1582), NCI-H196 (ATCC, cat. CRL-5823, RRID:CVCL_1509), NCI-H841 (ATCC, cat. CRL-5845, RRID:CVCL_1595), NCI-H1618 (ATCC, cat. CRL-5879, RRID:CVCL_1480), NCI-H1876 (ATCC, cat. CRL-5902, RRID:CVCL_1503), DMS 114 (ATCC, cat. CRL-2066; RRID:CVCL_1174), NCI-H211 (ATCC, cat. CRL-5824; RRID:CVCL_1529), and SW 1271 (ATCC, cat. CRL-2177, RRID:CVCL_1716). The small cell lung cancer cell line COR-L88 was purchased from Sigma-Aldrich (cat. 92031917-1VL, RRID:CVCL_1141). The non-small cell lung cancer cell lines NCI-H226 (RRID:CVCL_1544) and NCI-H322M (RRID:CVCL_1557) were established at the NCI and grown from internal seed stocks. Pooled donor human umbilical vein endothelial cells (HUVEC, Lonza, cat. CC-2519) and human mesenchymal stem cells (hMSC, Lonza, cat. PT-2501) were purchased from Lonza (Walkersville, MD).
Cell Culture. All cells were maintained in an incubator at 37 degrees C and 5% CO2 with 95% humidity. […]

[1] = compound alone, run of 11/07/2019
[2] = compound alone, run of 12/16/2019

Compound | viability, T/C (compound 0.0316 µM) | viability, T/C (compound 0.1 µM) | viability, T/C (compound 0.316 µM) | viability, T/C (compound 1 µM) | viability, T/C (compound 3.16 µM) | viability, T/C (compound 10 µM) | IC50 (curve of compound) | viability, T/C (compound 0.03 µM) | viability, T/C (compound 0.0949 µM) | viability, T/C (compound 0.3 µM) | viability, T/C (compound 3 µM) | other results
CC(C)n1c(=O)n(C)c2cnc3cc(F)c(-c4ccc(OCCCN5CCCCC5)nc4)cc3c21 | 100% and 85.6% and 104% | 98.1% and 49.6% and 104% | 103% and 53.3% and 100% | 103% and 47.4% and 104% | 107% and 28.5% and 105% | 102% and 11.4% and 93.3% | – | – | – | – | – | –
CC1COCCN1c1cc(-c2ccnn2C)c2ccnc(-c3ccn[nH]3)c2n1 (configuration not stated) | 54% and 61.9% and 73.3% | 32.2% and 41.5% and 41.2% | 18.1% and 48.3% and 20.1% | 6.97% and 20% and 7.21% | 3.09% and 11.9% and 3.22% | 2.37% and 7.33% and 2.52% | 39.1 nM and 121 nM and 73.6 nM | – | – | – | – | –
CC[C@@]1(O)C(=O)OCc2c1cc1n(c2=O)Cc2cc3c(CN(C)C)c(O)ccc3nc2-1 | – | – | – | – | – | – | – | 12.1% [middle of 10 runs] | 8% [middle of 10 runs] | 3.52% [middle of 10 runs] | – | viability, T/C (compound 0.003 µM): 84.5% [middle of 10 runs]; IC50 [1]: 7.08 nM [middle of 5 runs]; IC50 [2]: 5.61 nM [middle of 5 runs]
CNCc1ccc(-c2cc(-c3nc(-c4ccc(S(=O)(=O)C(C)C)cc4)cnc3N)on2)cc1 | – | – | – | – | – | – | 126 nM and 95.3 nM and 906 nM | 76.6% and 72.2% and 99.9% | 59.2% and 49.9% and 105% | 31.1% and 27.1% and 92.3% | 10.2% and 0.26% and 20.5% | viability, T/C (compound 0.00949 µM): 97.7% and 86.9% and 104%; viability, T/C (compound 0.949 µM): 16.1% and 10.4% and 48.3%
COc1cc(C)[nH]c(=O)c1CN1CCc2c(Cl)cc(C(OC)C3COC3)c(Cl)c2C1=O (configuration not stated) | 106% and 117% and 105% | 109% and 112% and 103% | 101% and 110% and 98.1% | 102% and 103% and 92.3% | 98.3% and 96.9% and 95.2% | 94.2% and 77.4% and 86.5% | > 10000 nM | – | – | – | – | –
COc1cc2c(cc1O)CCNC21CSC2c3c(OC(C)=O)c(C)c4c(c3C(COC1=O)N1C(O)C3Cc5cc(C)c(OC)c(O)c5C(C21)N3C)OCO4 (configuration not stated) | – | – | – | – | – | – | – | – | – | – | – | viability, T/C (compound 30 pM): 102% [middle of 10 runs]; viability, T/C (compound 94.9 pM): 90.2% [middle of 10 runs]; viability, T/C (compound 0.000949 µM): 2.68% [middle of 10 runs]; viability, T/C (compound 0.003 µM): 0.78% [middle of 10 runs]; IC50 [2]: 0.197 nM [middle of 10 runs]
COc1ccc([C@@H](O)c2cc(-c3ncnc4cc(N5CCOCC5)ccc34)c(F)cc2Cl)nn1 | 105% and 98% and 103% | 104% (2×) and 95.2% | 102% and 74.6% and 96.1% | 97.6% and 98% | 81.2% and 26.2% and 77.6% | – | 5500 nM and 1120 nM and 6510 nM | – | – | – | – | outcome (compound 1 µM): inactive
Cc1cc(C)c(CNC(=O)c2cc(-c3ccc(CN4CCOCC4)cc3)cc3c2cnn3C2CCCC2)c(=O)[nH]1 | 100% and 97.7% and 96.6% | 102% and 83.9% and 79.4% | 105% and 63% and 63.8% | 105% and 49.2% and 51.9% | 107% and 28.4% and 30.3% | 99.2% and 12% and 11.3% | – | – | – | – | – | –
Cc1sc2c(c1C)C(c1ccc(Cl)cc1)=NC(CC(=O)Nc1ccc(O)cc1)c1nnc(C)n1-2 (configuration not stated) | – | – | – | – | – | – | 98.8 nM and 112 nM and 709 nM | 71.5% and 70.6% and 109% | 51.4% and 53% and 109% | 33.7% and 35.1% and 81.6% | 12.9% and 9.5% and 12.3% | viability, T/C (compound 0.00949 µM): 94.3% and 86.8% and 105%; viability, T/C (compound 0.949 µM): 17% and 16% and 39.7%
Cn1ncnc1[C@H]1c2n[nH]c(=O)c3cc(F)cc(c23)N[C@@H]1c1ccc(F)cc1 | – | – | – | – | – | – | 104 nM and 84.6 nM and 67.4 nM | 73.5% and 65.7% and 71.3% | 52.3% and 49.7% and 39.4% | 28.3% and 25.2% and 21.1% | 0.28% and 7.28% and 3.57% | viability, T/C (compound 0.00949 µM): 88.9% and 68.4% and 87.4%
Cn1nnc2c(C(N)=O)ncn2c1=O | – | – | – | 95% [middle of 10 runs] | 103% [middle of 10 runs] | 99.7% [middle of 10 runs] | – | – | – | – | – | IC50 [1]: > 100000 nM and 19100 nM and 92000 nM
O=C(c1cc(Cc2n[nH]c(=O)c3ccccc23)ccc1F)N1CCN(C(=O)C2CC2)CC1 | – | – | – | – | – | – | > 30000 nM and 3960 nM and 5070 nM | – | 87% and 103% and 107% | 76% and 89.7% and 106% | 72.1% and 55.2% and 76.5% | viability, T/C (compound 0.949 µM): 84.4% and 76.2% and 100%; viability, T/C (compound 9.49 µM): 64% and 33.9% and 18.2%; viability, T/C (compound 30 µM): 66.7% and 19.1% and 12.6%
[2H]c1nc(C)nc([2H])c1-c1cc(NC[C@@H](C)c2cccc3c(C(=O)NC)ccnc23)ncn1 | 102% and 103% and 99.3% | 107% and 55.1% and 102% | 99.8% and 70.6% and 102% | 102% and 101% and 99.3% | 102% and 90.8% and 97.4% | 96.6% and 71% and 95% | > 10000 nM | – | – | – | – | –
